Experimental data as given in PubChem BioAssay AID1259407 (Chemical Carcinogenesis Research Information System (CCRIS), 2018).
Active and inactive are the calls of the source. The rule behind the calls is not given here.

Test system: CCRIS mutagenicity, Ames/micronucleus/aberration tests
Assay: CCRIS mutagenicity studies

For `COc1cccc2c1C(=O)c1c(O)c3c(c(O)c1C2=O)C[C@@](O)(C(=O)CO)C[C@@H]3O[C@H]1C[C@H](N)[C@H](O)[C@H](C)O1`, the mutagenic call (End Point: IN VITRO CHROMOSOMAL ABERRATIONS, Test System: CHO-WBL CELLS, Metabolic Activation: NONE) was “active; positive”, the mutagenic call (End Point: IN VITRO CHROMOSOMAL ABERRATIONS, Test System: HUMAN (MALE) PERIPHERAL LYMPHOCYTES, Metabolic Activation: NONE, Method: FISH (METAPHASE)) was “active; positive (structural changes)” and the mutagenic call (End Point: IN VIVO CHROMOSOMAL ABERRATIONS, Test System: BONE MARROW CELLS, Species: RAT, Strain/Sex: WISTAR/MALE, FEMALE, Route: IP) was “active; positive (structural changes; abnormal metaphase)”. For the same compound, the mutagenic call (End Point: IN VIVO CHROMOSOMAL ABERRATIONS, Test System: BONE MARROW CELLS, Species: RAT, Strain/Sex: WISTAR, Route: IP) was “active; positive”, the mutagenic call (End Point: IN VIVO CHROMOSOMAL ABERRATIONS, Test System: BONE MARROW, Species: RAT, Strain/Sex: WISTAR/MALE, FEMALE, Route: INTRAPERITONEAL) was “active; positive (structural changes)” and the mutagenic call (End Point: IN VIVO CHROMOSOMAL ABERRATIONS, Test System: BONE MARROW, Species: RAT, Strain/Sex: WISTAR, Route: INTRAPERITONEAL (TEST MATERIAL SOLVENT: WATER)) was “active; positive (structural changes)”. The mutagenic call (End Point: In vitro chromosomal aberrations, Test System: Chinese hamster ovary (CHO) cells, Metabolic Activation: None) was “active; positive (structural changes)”, the mutagenic call (End Point: In vitro chromosomal aberrations, Test System: Human (female) lymphocytes) was “active; positive. fucus vesiculosus extract (84696-13-9) at 0.25-1.0 mg/ml was antimutag” and the mutagenic call (End Point: In vitro chromosomal aberrations, Test System: Human lymphocytes, Metabolic Activation: None) was “active; positive (structural changes). significantly reduced by selenomethionine treatme”. The mutagenic call (End Point: In vitro micronucleus, Test System: Human peripheral blood lymphocytes, Metabolic Activation: None) was “active; positive”, the mutagenic call (End Point: In vivo chromosomal aberrations, Test System: Bone marrow cells, Species: Rat, Strain/Sex: Wistar/Male and female, Route: Intraperitoneal) was “active; positive (structural changes); administration of vitamin c or vitamin e decrease” and the mutagenic call (End Point: In vivo chromosomal aberrations, Test System: Bone marrow cells, Species: Rat, Strain/Sex: Wistar/Male and female, Route: Oral) was “active; positive (structural changes)”. For the same compound, the mutagenic call (End Point: In vivo chromosomal aberrations, Test System: Bone marrow, Species: Rat, Strain/Sex: Wistar/Male and female, Route: Intraperitoneal (Test material solvent: either distilled water or DMSO solution)) was “active; positive (structural changes). prior treatment with propolis extract reduced the”, the mutagenic call (End Point: In vivo micronucleus, Test System: Bone marrow erythrocytes, Species: Mouse, Strain/Sex: Swiss albino/Male, Route: Oral) was “inactive; negative” and the mutagenic call (Test System: AMES SALMONELLA TYPHIMURIUM, Strain/Indicator: GW257, Metabolic Activation: NONE, Method: STANDARD PLATE) was “active; positive”. The mutagenic call (Test System: AMES SALMONELLA TYPHIMURIUM, Strain/Indicator: TA97, Metabolic Activation: NONE, Method: STANDARD PLATE) was “inactive; negative”, the mutagenic call (Test System: AMES SALMONELLA TYPHIMURIUM, Strain/Indicator: TA97, Metabolic Activation: RAT, LIVER, S-9, PHENOBARBITAL AND ALPHA-NAPHTHOFLAVONE, Method: STANDARD PLATE) was “inactive; negative” and the mutagenic call (Test System: AMES SALMONELLA TYPHIMURIUM, Strain/Indicator: TA97A, Metabolic Activation: NONE, Method: STANDARD PLATE) was “inactive; negative”. For the same compound, the mutagenic call (Test System: AMES SALMONELLA TYPHIMURIUM, Strain/Indicator: TA97A, Metabolic Activation: RAT, LIVER, S-9, AROCLOR 1254, Method: STANDARD PLATE) was “inactive; negative”, the mutagenic call (Test System: AMES SALMONELLA TYPHIMURIUM, Strain/Indicator: TA98, Metabolic Activation: NONE, Method: PREINCUBATION) was “active; positive” and the mutagenic call (Test System: AMES SALMONELLA TYPHIMURIUM, Strain/Indicator: TA98, Metabolic Activation: RAT, LIVER, S-9, AROCLOR 1254, Method: STANDARD PLATE) was “active; positive”. The mutagenic call (Test System: AMES SALMONELLA TYPHIMURIUM, Strain/Indicator: TA98, Metabolic Activation: RAT, LIVER, S-9, KC500 OR PHENOBARBITAL, Method: LIQUID SUSPENSION) was “active; positive”, the mutagenic call (Test System: AMES SALMONELLA TYPHIMURIUM, Strain/Indicator: TA98, Metabolic Activation: RAT, LIVER, S-9, PHENOBARBITAL AND ALPHA-NAPHTHOFLAVONE, Method: STANDARD PLATE) was “active; positive” and the mutagenic call (Test System: AMES SALMONELLA TYPHIMURIUM, Strain/Indicator: TA98, Metabolic Activation: S-9, Method: PREINCUBATION) was “active; positive”. For the same compound, the mutagenic call (Test System: AMES SALMONELLA TYPHIMURIUM, Strain/Indicator: TA100, Metabolic Activation: NONE, Method: PREINCUBATION) was “inactive; negative”, the mutagenic call (Test System: AMES SALMONELLA TYPHIMURIUM, Strain/Indicator: TA100, Metabolic Activation: RAT, LIVER, S-9, AROCLOR 1254, Method: STANDARD PLATE) was “inactive; negative” and the mutagenic call (Test System: AMES SALMONELLA TYPHIMURIUM, Strain/Indicator: TA100, Metabolic Activation: RAT, LIVER, S-9, PHENOBARBITAL AND ALPHA-NAPHTHOFLAVONE, Method: STANDARD PLATE) was “active; positive”. For the same compound, the mutagenic call (Test System: AMES SALMONELLA TYPHIMURIUM, Strain/Indicator: TA100, Metabolic Activation: S-9, Method: PREINCUBATION) was “active; positive”, the mutagenic call (Test System: AMES SALMONELLA TYPHIMURIUM, Strain/Indicator: TA102, Metabolic Activation: NONE, Method: STANDARD PLATE) was “active; positive” and the mutagenic call (Test System: AMES SALMONELLA TYPHIMURIUM, Strain/Indicator: TA102, Metabolic Activation: RAT, LIVER, S-9, AROCLOR 1254, Method: STANDARD PLATE) was “active; positive”. The mutagenic call (Test System: AMES SALMONELLA TYPHIMURIUM, Strain/Indicator: TA1535, Metabolic Activation: NONE, Method: STANDARD PLATE) was “inactive; negative”, the mutagenic call (Test System: AMES SALMONELLA TYPHIMURIUM, Strain/Indicator: TA1535, Metabolic Activation: RAT, LIVER, S-9, PHENOBARBITAL AND ALPHA-NAPHTHOFLAVONE, Method: STANDARD PLATE) was “inactive; negative” and the mutagenic call (Test System: AMES SALMONELLA TYPHIMURIUM, Strain/Indicator: TA1537, Metabolic Activation: NONE, Method: STANDARD PLATE) was “inactive; negative”. The mutagenic call (Test System: AMES SALMONELLA TYPHIMURIUM, Strain/Indicator: TA1978/PKM101, Metabolic Activation: NONE, Method: STANDARD PLATE) was “active; positive”, the mutagenic call (Test System: AMES SALMONELLA TYPHIMURIUM, Strain/Indicator: TA1978, Metabolic Activation: NONE, Method: STANDARD PLATE) was “inactive; negative” and the mutagenic call (Test System: AMES SALMONELLA TYPHIMURIUM, Strain/Indicator: TA2637, Metabolic Activation: NONE, Method: STANDARD PLATE) was “active; positive”. For the same compound, the mutagenic call (Test System: CHINESE HAMSTER OVARY, Strain/Indicator: CHO-AS52 (GPT), Metabolic Activation: NONE) was “active; positive”, the mutagenic call (Test System: CHINESE HAMSTER OVARY, Strain/Indicator: CHO-K1-BH4 (HPRT), Metabolic Activation: NONE) was “active; positive” and the mutagenic call (Test System: CHINESE HAMSTER V-79, Strain/Indicator: V-79 (HGPRT)/6-THIOGUANINE, Metabolic Activation: NONE) was “active; positive”. The mutagenic call (Test System: CHINESE HAMSTER V-79, Strain/Indicator: V-79-MZ (HPRT)/6-THIOGUANINE, Metabolic Activation: NONE) was “active; positive”, the mutagenic call (Test System: CHINESE HAMSTER V-79, Strain/Indicator: V-79/6-THIOGUANINE, Metabolic Activation: RAT, LIVER, HEPATOCYTES, Method: SUSPENSION/PLATE) was “active; positive” and the mutagenic call (Test System: CHINESE HAMSTER V-79, Strain/Indicator: V-79/6-THIOGUANINE, Metabolic Activation: RAT, LIVER, HOMOGENATE, Method: SUSPENSION/PLATE) was “inactive; negative”. For the same compound, the mutagenic call (Test System: CHINESE HAMSTER V-79, Strain/Indicator: V-79/8-AZAGUANINE, Metabolic Activation: NONE, Method: STANDARD PLATE) was “active; positive”, the mutagenic call (Test System: CHINESE HAMSTER V-E5, Strain/Indicator: V-E5 (HPRT)/6-THIOGUANINE, Metabolic Activation: NONE) was “active; positive” and the mutagenic call (Test System: E. COLI, Strain/Indicator: WP2 (HCR), Metabolic Activation: NONE, Method: STANDARD PLATE) was “inactive; negative”. The mutagenic call (Test System: MOUSE LYMPHOMA, Strain/Indicator: L5178Y (TK+/TK-), Metabolic Activation: NONE, Method: SUSPENSION/PLATE) was “active; positive”.
